The results in this text go back to patent publication US20130005678A1, “Methods and Compositions for Treating or Ameliorating Cancer Using Gemcitabine-5'-Elaidate” (CLAVIS PHARMA ASA, priority 2010, published 2013).

Each structure is given as a SMILES string.

One experiment deals with CEM and CEM-Ara-C/8. As to the kind of experiment: Tumor cell killing in vitro in CEM and hENT1-deficient CEM-Ara-C/8 (FIGS. 5A-5B). The format is cell-based. To be noted: CEM vs hENT1-deficient CEM-Ara-C/8. An excerpt:
CEM: T-lymphoblastic leukemia cell line. CEM-Ara-C/8: Clonal derivative of CEM with hENT1 transporter deficiency.

For experiment [1], the system named is human glioma cells U373. The experiment in a line: Antitumor activity in human glioma U373 grown intracerebrally. It is filed as in vivo. How it is done:
NMRI male mice are inoculated with human glioma cells U373 intracerebrally. The tumors at the injection site (at the surface of the brain), as well as the intracerebral tumors, are evaluated. Gemcitabine-5′-elaidic acid ester is administered intraperitoneally on Days 4-8, 11-15, 18-22, and 25-29 and is active at 4 mg/kg per injection.

Experiment [2] relates to CCRF-CEM human leukemia cell line. The experiment in a line: Triphosphate accumulation and retention in CCRF-CEM cells. It is filed as cell-based. An excerpt: Drugs: Gemcitabine-5′-elaidate was provided by Clavis Pharma (Oslo, Norway), tetra hydro uridine (THU) was from Calbiochem (Merck, Darmstadt, Germany), dipyridamole and ara-C were from Sigma-Aldrich (St. Louis, Mo., USA) and dFdC was from Eli-Lilly (Indianapolis, Ind., USA). The radioactively labeled drugs were obtained from Moravek (Brea, Calif., USA); the drugs were labeled with tritium on the 5-C site of the base. A mix of radioactive and non-radioactive compounds was made for exposure of cells; dFdC and CP-4126 were used at a final concentration of 8.9 μM and a specific activity of 586 and 391 mCi/mmol, respectively.
Cell lines: For the experiments the CCRF-CEM human leukemia cell line and its dCK negative variant (CEM/dCK−) were used. The cell lines were cultured in RPMI medium (BioWhittaker, Verviers, Belgium) supplemented with 10% fetal calf serum (PAA laboratories, Pasching, Austria) and HEPES buffer (BioWhittaker). Of the nucleoside influx transporters, the CEM cell line only expresses the equilibrative nucleoside transporter (hENT) and not the concentrative nucleoside transporter (hCNT). Belt et al. Adv. Enzyme Regul., 1993, 33, 235-52. Dipyridamole (DP) was used to inhibit the influx of the drugs by hENT. In order to get a clean picture, THU was also added to inhibit deamination of ara-C and dFdC.
Triphosphate accumulation: Cells were treated with 1 and 10 μM of dFdC, while for the lipophilic analogs 10 and 100 μM was used. The cells were incubated for 60 minutes and retention of the triphosphates was investigated after 60 and 120 minutes incubation in drug-free medium. Dipyridamole was added to inhibit drug influx by the hENT transporter. After incubation the cell pellet was resuspended in ice-cold PBS and incubated for 20 minutes at 4° C. with 40% trichloroacetic acid. After centrifugation (10,000 g, 10 min, 4° C.) the supernatant was treated with a 2-fold excess of trioctylamine/1,1,2-trichlorotrifluorethane (1:4) and spun down (10,000 g, 1 min) and the aqueous phase was stored at −20° C. until analysis by HPLC on a Whatman Partisphere SAX column (GE healthcare, Chalfont St. Giles, UK) using gradient (dFdC-TP) elution as described earlier. Noordhuis et al., Leuk. Res., 1996, 20, 127-34; Ruiz van Haperen, et al., Biochem. Pharmacol., 1994, 48, 1327-39.

The test system of the next experiment is P388 leukemia cells. As to the kind of experiment: Antitumor effect in P388 murine leukemia model. The format is in vivo. To be noted: B6D2F1 female mice; intraperitoneal; single doses or daily for 10 consecutive days; all tested doses and schedules.
The test system of another experiment is WiDr-LF cell line. The experiment in a line: Combination with pemetrexed under low folate conditions (WiDr-LF). It is filed as cell-based, human. To be noted: MTT assay. How it is done: The cell lines A549 human NSCLC and WiDr human colon carcinoma are used to determine the combination index and also the effect of Gemcitabine-5′-elaidate on the cell cycle. A sulforhodamine B colorimetric assay is used to determine growth inhibition after 72 hours. Pemetrexed combinations are tested using the MTT assay. Combinations with pemetrexed are also tested in the WiDr-LF cell line, which are WiDr cells cultured under low folate conditions. The IC25 and IC50 values (inhibitory concentrations at 25% or 50%, respectively) are calculated. The IC25 value is used for combinations with serial dilutions of oxaliplatin or docetaxel, and the IC50 value is used for pemetrexed combinations. Median effect analysis is performed.

Another experiment has as its system A549. The experiment in a line: Platinum accumulation in DNA (A549). The conditions noted are these: oxaliplatin 200 μM combined with Gemcitabine-5′-elaidate 0.004 μM. The format is cell-based, human. The protocol:
The effect on DNA platinum accumulation in DNA after exposure to oxaliplatin and oxaliplatin combined with Gemcitabine-5′-elaidate (oxaliplatin [200 μM] combined with Gemcitabine-5′-elaidate [0.004 μM]) is also determined.

The next experiment deals with A549 cell line. As to the kind of experiment: Cell cycle analysis, flow cytometry with propidium iodide (A549). The format is cell-based, human. How it is done:
The effect on cell cycle is determined after 72 h exposure using flow cytometry combined with propidium iodide staining For cell cycle analysis, the concentration range is from 0.0005 μM to 0.05 μM in the A549 cell line and from 0.001 μM to 0.1 μM in the WiDr cell line. […] The effect on cell cycle is obtained also for the combinations with pemetrexed.

The subject of experiment [3] is THX, Lox, MOLT4, and MOLT4/C. As to the kind of experiment: Protection by dipyridamole from cell killing in vitro (FIG. 4). It is filed as cell-based. To be noted: four cell lines. An excerpt: The number on the Y axis is the fold protection by dipyridamole from administration of gemcitabine and gemcitabine-5′-elaidate.
Experiment [4] has as its system human glioma cells U373. As to the kind of experiment: Antitumor activity in human glioma xenograft model U373 (subcutaneous). The format is in vivo. To be noted: NCR mice, intraperitoneal. An excerpt:
NCR mice are inoculated subcutaneously on Day 0 with human glioma cells U373. Treatment (intraperitoneal) starts on Day 7, either every third day or weekly.
On the technique in general: In xenograft studies the graft and the host belong to different species.

Regarding `CCCCCCCC/C=C/CCCCCCCC(=O)OC[C@H]1O[C@@H](n2ccc(N)nc2=O)C(F)(F)[C@@H]1O` [gemcitabine-5′-elaidic acid ester], the “tumor cell killing in relation to hENT1” value with CEM and CEM-Ara-C/8 is reported as “kills tumor cells in vitro independent of hENT1”. Moreover, the antitumor activity entry in the experiment with human glioma cells U373 [1] (NMRI male mice, U373 intracerebrally, intraperitoneally Days 4-8, 11-15, 18-22, 25-29, 4 mg/kg per injection) is recorded as “active”; in the experiment with P388 leukemia cells, “significant antitumor activity”. The activity intracerebrally result with human glioma cells U373 [1] (after intraperitoneal administration) is on record as “active intracerebrally”. The “retention of dFdC-TP concentration after washing away the drugs” value in experiment [2] (60 and 120 minutes in drug-free medium) is “retained at a similar level”. For the same molecule, in [2] (hENT inhibited by dipyridamole), the “effect of dipyridamole on dFdC-TP accumulation” value is reported as “even increased the concentration of triphosphates”. The “antagonistic activity of combination with pemetrexed under low folate conditions” value in the experiment on WiDr-LF cell line was “slightly reduced”. In addition, the “platinum adducts in DNA, oxaliplatin combined vs oxaliplatin alone” value with A549 was “but not in A549”. For the same molecule, the “effect on cell cycle” value with A549 cell line (72 h exposure, 0.0005 μM to 0.05 μM) was “no effect on cell cycle”. In addition, in the experiment with A549 cell line (increased from 8.8%), the “G0/G1 phase, combination with pemetrexed” value was found to be 14.1%. In addition, the “S phase, combination with pemetrexed” value in the experiment on A549 cell line (increased from 23.1%) was 28.5%. The “protection by dipyridamole (blocking transporters) against cell killing” value in [3] is reported as “does not protect”. Also, the “antitumor effect compared with gemcitabine” value in the experiment on human glioma cells U373 [4] (dosed Days 7 and 14 (weekly)) is “better than that of gemcitabine”; with human glioma cells U373 [4] (every third day schedule from Day 7), “equal to gemcitabine”.
